Measured values as given in ChEMBL document CHEMBL2007661, “Compounds: GSK PKIS; Assays: UNC Frye lab” (2012).
Where “and” joins values, the source holds several entries; their conditions need not be identical. Identical values can stand only once.

How the values were obtained:
[1] = target: T1, Inhibitor of nuclear factor kappa-B kinase subunit alpha (Homo sapiens) (UniProt O15111); settings: at 1 µM
T1 sequence (whole entry): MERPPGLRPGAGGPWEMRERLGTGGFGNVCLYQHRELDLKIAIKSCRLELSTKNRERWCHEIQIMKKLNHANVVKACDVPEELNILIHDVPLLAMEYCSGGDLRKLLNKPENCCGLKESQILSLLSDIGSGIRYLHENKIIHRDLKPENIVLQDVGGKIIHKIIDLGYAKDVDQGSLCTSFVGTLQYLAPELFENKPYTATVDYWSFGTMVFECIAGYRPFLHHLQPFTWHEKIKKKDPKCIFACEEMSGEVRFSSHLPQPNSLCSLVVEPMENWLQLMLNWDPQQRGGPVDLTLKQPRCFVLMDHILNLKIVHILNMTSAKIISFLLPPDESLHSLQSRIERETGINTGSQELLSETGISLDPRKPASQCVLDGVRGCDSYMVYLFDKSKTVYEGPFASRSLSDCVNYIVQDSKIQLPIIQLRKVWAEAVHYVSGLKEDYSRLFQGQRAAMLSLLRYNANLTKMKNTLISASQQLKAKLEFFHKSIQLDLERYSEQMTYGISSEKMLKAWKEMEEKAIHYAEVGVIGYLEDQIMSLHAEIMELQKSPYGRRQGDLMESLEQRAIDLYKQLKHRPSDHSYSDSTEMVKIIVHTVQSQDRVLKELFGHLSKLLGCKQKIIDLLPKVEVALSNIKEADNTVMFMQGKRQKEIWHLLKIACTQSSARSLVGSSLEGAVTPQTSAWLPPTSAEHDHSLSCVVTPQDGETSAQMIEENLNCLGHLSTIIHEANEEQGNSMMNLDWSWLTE

[2] = target: T2, Serine/threonine-protein kinase TBK1 (Homo sapiens) (UniProt Q9UHD2); settings: at 1 µM
T2 sequence (whole entry): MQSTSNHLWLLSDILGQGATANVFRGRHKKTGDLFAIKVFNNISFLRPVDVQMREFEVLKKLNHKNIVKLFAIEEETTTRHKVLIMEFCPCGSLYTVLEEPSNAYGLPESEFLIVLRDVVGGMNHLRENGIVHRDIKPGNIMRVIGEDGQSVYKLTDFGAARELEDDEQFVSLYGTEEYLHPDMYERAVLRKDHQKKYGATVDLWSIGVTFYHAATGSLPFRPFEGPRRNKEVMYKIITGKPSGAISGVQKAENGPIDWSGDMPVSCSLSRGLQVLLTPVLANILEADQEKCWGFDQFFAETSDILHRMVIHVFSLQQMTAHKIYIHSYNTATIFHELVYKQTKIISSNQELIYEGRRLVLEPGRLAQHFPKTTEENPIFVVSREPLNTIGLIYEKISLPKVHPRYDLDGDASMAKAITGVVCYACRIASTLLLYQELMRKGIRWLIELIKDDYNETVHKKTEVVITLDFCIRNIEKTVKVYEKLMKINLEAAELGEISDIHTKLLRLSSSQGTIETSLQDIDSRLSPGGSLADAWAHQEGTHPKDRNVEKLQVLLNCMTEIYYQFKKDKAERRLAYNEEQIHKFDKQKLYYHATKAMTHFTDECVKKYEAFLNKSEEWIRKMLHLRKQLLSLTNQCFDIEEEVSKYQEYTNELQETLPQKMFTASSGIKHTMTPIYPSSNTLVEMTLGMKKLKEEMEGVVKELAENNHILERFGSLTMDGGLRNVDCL

[3] = target: T3, Inhibitor of nuclear factor kappa-B kinase subunit beta (Homo sapiens) (UniProt O14920); settings: at 1 µM
T3 sequence (whole entry): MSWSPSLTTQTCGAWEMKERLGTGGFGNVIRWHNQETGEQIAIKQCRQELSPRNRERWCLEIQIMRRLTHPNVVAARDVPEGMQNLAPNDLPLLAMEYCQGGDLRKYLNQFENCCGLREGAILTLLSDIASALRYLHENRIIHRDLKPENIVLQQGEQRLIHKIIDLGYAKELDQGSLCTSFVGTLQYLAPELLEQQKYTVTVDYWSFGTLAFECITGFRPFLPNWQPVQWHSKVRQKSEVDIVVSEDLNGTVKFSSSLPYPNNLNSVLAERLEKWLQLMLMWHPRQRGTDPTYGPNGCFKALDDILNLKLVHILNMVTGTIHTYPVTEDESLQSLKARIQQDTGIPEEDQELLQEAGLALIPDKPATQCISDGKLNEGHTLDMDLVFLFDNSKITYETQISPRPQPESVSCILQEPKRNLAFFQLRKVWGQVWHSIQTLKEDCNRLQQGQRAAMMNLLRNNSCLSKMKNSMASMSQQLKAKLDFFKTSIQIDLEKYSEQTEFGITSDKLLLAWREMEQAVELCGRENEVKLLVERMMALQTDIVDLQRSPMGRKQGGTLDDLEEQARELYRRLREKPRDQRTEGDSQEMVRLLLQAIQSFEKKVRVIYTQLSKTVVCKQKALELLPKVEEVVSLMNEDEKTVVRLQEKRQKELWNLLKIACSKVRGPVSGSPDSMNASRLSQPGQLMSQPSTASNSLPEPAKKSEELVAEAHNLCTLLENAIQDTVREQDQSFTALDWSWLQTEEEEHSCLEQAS

[4] = target: T4, Inhibitor of nuclear factor kappa-B kinase subunit epsilon (Homo sapiens) (UniProt Q14164); settings: at 1 µM
T4 sequence (whole entry): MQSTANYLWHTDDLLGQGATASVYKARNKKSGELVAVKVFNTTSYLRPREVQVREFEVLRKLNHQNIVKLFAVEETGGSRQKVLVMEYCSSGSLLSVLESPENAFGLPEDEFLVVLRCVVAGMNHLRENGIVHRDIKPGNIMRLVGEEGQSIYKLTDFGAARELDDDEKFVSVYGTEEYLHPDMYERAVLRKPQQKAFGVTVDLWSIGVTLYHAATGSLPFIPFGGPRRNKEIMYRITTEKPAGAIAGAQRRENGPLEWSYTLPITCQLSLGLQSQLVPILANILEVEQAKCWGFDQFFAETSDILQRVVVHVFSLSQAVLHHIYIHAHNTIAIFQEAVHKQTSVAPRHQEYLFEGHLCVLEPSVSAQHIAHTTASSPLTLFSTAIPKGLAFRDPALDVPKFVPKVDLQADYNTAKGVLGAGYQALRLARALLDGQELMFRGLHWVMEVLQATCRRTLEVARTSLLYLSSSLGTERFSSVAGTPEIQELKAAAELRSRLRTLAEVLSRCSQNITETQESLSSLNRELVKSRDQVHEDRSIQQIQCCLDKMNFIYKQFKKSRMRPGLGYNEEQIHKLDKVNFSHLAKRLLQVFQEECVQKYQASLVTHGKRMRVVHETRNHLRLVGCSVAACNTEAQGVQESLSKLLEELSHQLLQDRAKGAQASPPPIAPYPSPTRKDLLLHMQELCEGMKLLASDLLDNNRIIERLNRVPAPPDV

[5] = target: T5, Tyrosine-protein kinase Mer (Homo sapiens) (UniProt Q12866); settings: at 10 µM
T5 sequence (whole entry): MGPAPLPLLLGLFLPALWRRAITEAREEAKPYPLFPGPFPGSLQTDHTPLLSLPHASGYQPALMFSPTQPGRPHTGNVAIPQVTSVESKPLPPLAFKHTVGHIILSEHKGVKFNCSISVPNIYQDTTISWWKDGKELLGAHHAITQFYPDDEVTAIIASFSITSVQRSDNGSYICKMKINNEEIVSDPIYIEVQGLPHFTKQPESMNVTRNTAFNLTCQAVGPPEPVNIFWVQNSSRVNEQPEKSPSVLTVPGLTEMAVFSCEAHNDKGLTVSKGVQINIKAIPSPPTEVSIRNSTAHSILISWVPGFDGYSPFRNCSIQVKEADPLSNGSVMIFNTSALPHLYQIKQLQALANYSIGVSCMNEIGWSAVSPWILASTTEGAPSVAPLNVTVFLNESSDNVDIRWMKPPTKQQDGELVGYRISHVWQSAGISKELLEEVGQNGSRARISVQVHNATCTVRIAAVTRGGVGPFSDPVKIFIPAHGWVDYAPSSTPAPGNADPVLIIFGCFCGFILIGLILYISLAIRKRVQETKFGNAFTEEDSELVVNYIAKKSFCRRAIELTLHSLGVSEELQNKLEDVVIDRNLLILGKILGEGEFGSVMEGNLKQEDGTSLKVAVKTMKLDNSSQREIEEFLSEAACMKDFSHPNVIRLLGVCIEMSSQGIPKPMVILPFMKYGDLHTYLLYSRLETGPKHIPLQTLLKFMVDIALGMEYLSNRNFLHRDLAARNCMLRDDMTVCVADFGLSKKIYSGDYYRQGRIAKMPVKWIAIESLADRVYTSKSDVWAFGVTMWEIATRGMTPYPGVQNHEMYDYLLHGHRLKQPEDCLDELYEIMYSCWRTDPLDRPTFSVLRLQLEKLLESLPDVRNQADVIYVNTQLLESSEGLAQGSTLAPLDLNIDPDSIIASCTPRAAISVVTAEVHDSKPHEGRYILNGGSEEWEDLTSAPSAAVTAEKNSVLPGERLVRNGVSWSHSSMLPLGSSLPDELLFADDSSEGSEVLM

inhibition [1]	inhibition [2]	inhibition [3]	inhibition [4]	inhibition [5] [%]	Structure (SMILES)
5% and 4%	-5% and -3%	-4% and -8%	-4% and -6%	–	COC(=O)Nc1nc2ccc(Oc3ccc(NC(=O)Nc4cc(C(F)(F)F)ccc4F)cc3)cc2s1
1% and 0%	-1% and 1%	-2% and -1%	0%	–	Cc1ccc(NC(=O)CC2CC2)cc1-c1ccc(C(=O)NCC2CC2)cc1
5% and 4%	-5% and -1%	–	0%	-10	CC(C)c1ccc2c(c1)NC(=O)/C2=N/Nc1ccc(S(N)(=O)=O)cc1
–	4% and -2%	-2% and -4%	12% and 9%	–	Fc1ccc(-c2nn3ncccc3c2-c2ccnc(Nc3ccc4c(c3)OCCO4)n2)cc1
-9%	37% and 39%	-4% and 0%	35% and 37%	–	N#Cc1cccc(Nc2nccc(-c3cnn4ncccc34)n2)c1
-2% and -3%	5% and 6%	–	5% and 6%	-4	c1cc(-c2cnn3nc(N4CCOCC4)ccc23)nc(NC2CC2)n1
-10% and 3%	6% and 8%	–	3%	55	C[C@@H](Oc1cc(-n2cnc3ccc(OCC4CCN(C)CC4)cc32)sc1C(N)=O)c1ccccc1Cl
-1%	7% and 5%	–	1%	65	CCS(=O)(=O)c1ccc(OC)c(Nc2ncc(-c3cccc(C(C)=O)c3)o2)c1
4% (2×) and 5% and 3%	0% [middle of 4 runs]	-4% and -5%	1% [middle of 4 runs]	–	Nc1nccc(-c2c(-c3ccc(F)cc3)ncn2C2CCNCC2)n1
0% and 2%	24% and 31%	–	11% and 20%	98	COc1cccc(Nc2nccc(-c3cnn4ncccc34)n2)c1
5%	5% and 2%	-4% and -10%	1%	–	[O-][S+]1CCN(Cc2ccc(-c3ccc4ncnc(Nc5ccc(OCc6ccccc6)c(F)c5)c4c3)o2)CC1
–	7% and 3%	-1% and -2%	1% and 5%	-2	C[C@@H](Oc1cc(-n2cnc3ccc(OC4CCN(C)CC4)cc32)sc1C(N)=O)c1ccccc1Cl
-3% and -2%	85% and 86%	-4% and -5%	-8% and -9%	–	NS(=O)(=O)c1ccc(N/C=C2\C(=O)Nc3ccc4ncsc4c32)cc1
7% and 6%	4% and 3%	-6%	0%	–	O=C(Nc1n[nH]c2nc(-c3ccco3)ccc12)C1CC1
–	12%	3%	45% and 46%	10	CCn1c(-c2nonc2N)nc2cnc(Oc3cccc(NC(=O)c4ccc(OCCN5CCOCC5)cc4)c3)cc21
–	16% and 21%	2% and 1%	2% and 0%	22	NC(=O)c1cc(-c2ccc(F)cc2)cc(-c2ccncc2)c1N
2% [middle of 4 runs]	-1% (2×) and 2% and 1%	-7% and -4%	12% [middle of 4 runs]	–	Nc1ncnc2occ(-c3ccc(NC(=O)Nc4cc(C(F)(F)F)ccc4F)cc3)c12
–	10% and 13%	-1% and 0%	14%	-1	NC(=O)c1cc(-c2ccncc2)cc(-c2ccccc2)c1N
2% and 17%	8% and 7%	–	0% and 2%	73	CCS(=O)(=O)c1ccc(OC)c(Nc2ncc(-c3cccc(F)c3)o2)c1
60% and 64%	0% and -4%	3% and 2%	-1%	–	Fc1cccc(COc2ccc(Nc3ncnc4cc(-c5ccc[nH]5)sc34)cc2Cl)c1
50%	-2% and -3%	–	0% and 1%	-9	Clc1ccc(-c2nn3ncccc3c2-c2ccnc(Nc3ccccc3)n2)cc1
